One data set concerns tubulin. In words: Tubulin polymerization assay. Details: key: a compound showing 0 to 50% inhibition at 20 μM is reported as score 1; Score 2 compounds are defined as compound showing more than 50% inhibition at 20 μM and less than 50% inhibition at 5 μM; a compound showing more than 50% inhibition at 5 μM is reported as score 3. Type of data set: biochemical. As to conditions: tested at 20 μM and 5 μM. As for the experimental part:
The tubulin polymerization assay is an adaptation of an assay originally described by Bonne, D. et al. (J. Biol. Chem., 1985, 260:2819-25). The assay kit was purchased from Cytoskeleton, Inc. (catalogue number BK011) and the assay was performed as described by the supplier with the following modifications. The assay was run in a 384-well black Proxiplate (Perkin Elmer) and volumes were adapted accordingly. The reactions were carried out in a final volume of 10 μl. Compounds were added to 25 μl of the reaction mix in 96-well PP plates (Corning) on ice and 10 μl of this mixture was dispensed into duplicates of the 384-well Proxiplates pre-warmed to 37° C. in a Fluoroskan Ascent plate reader (Thermo Scientific). Fluorescence measurements were taken every minute for one hour. The maximum slope of each well was determined (linear regression through 4 consecutive points) and polymerization was calculated as a percentage of polymerization observed in the absence of compound. Compounds were first measured at a concentration of 20 μM and then at 5 μM for those showing more than 50% inhibition at 20 μM as compared to the polymerization observed in the absence of compound. Results are reported in Table F-2 as scores defined as: a compound showing 0 to 50% inhibition at 20 μM is reported as score 1; a compound showing more than 50% inhibition at 5 μM is reported as score 3.

Consider `CCc1cc2ccc(C(C)(C#N)Cc3cccc(-c4nc(C)no4)c3)cc2[nH]c1=O` (stereo not drawn) [Compound 11], for which the melting point – broadly, the temperature of the solid-liquid transition – was found to be 152 °C.
As for `CCc1cc2ccc([C@@](C)(C#N)CCOc3ccccc3)cc2[nH]c1=O` (single isomer, unassigned) [Compound 150], in the data set on tubulin, the tubulin polymerisation score was 2.
Still for that read-out and setting: for `CCc1cc2ccc(C(C)(C#N)CCOc3cccc(C)c3)cc2[nH]c1=O` (stereo not drawn) [Compound 143] the value was 2; for `CCc1cc2ccc(C(C)(C#N)Cc3cccc(Cl)c3F)cc2[nH]c1=O` (stereo not drawn) [Compound 130], 2; for `CCc1cc2ccc(C(C)(C#N)Cc3cc(F)cc(F)c3)cc2[nH]c1=O` (stereo not drawn) [Compound 128], 1 (a compound showing 0 to 50% inhibition at 20 μM is reported as score 1).
As for `CCc1cc2ccc(C(C)(C#N)Cc3cccc(NS(C)(=O)=O)c3)cc2[nH]c1=O` (stereo not drawn) [Compound 14], the melting point came to 80 °C.
With `CCc1cc2ccc(C(C)(C#N)Cc3cc(F)cc(Cl)c3)cc2[nH]c1=O` (stereo not drawn) [Compound 126], in the data set with tubulin, the tubulin polymerisation score stood at 2.
Regarding `CCc1cc2ccc(C(C)(C#N)Cc3cccc(F)c3)cc2[nH]c1=O` (stereo not drawn) [Compound 112], the tubulin polymerisation score in the data set on tubulin is recorded as 1 (a compound showing 0 to 50% inhibition at 20 μM is reported as score 1).
For the compound `CCc1cc2ccc(C(C)(C#N)Cc3cccc(C(=O)O)c3)cc2[nH]c1=O` (stereo not drawn) [Compound 10], the melting point is > 260 °C.
In the data set with tubulin, `CCc1cc2ccc(C(C)(C#N)CCOc3ccc(C)cc3)cc2[nH]c1=O` (stereo not drawn) [Compound 149] returned a tubulin polymerisation score of 2.
Same read-out and setting: for `CCc1cc2ccc(C(C)(C#N)CCOc3ccccc3C)cc2[nH]c1=O` (stereo not drawn) [Compound 148] the value was 1 (a compound showing 0 to 50% inhibition at 20 μM is reported as score 1); for `CCc1cc2ccc(C(C)(C#N)Cc3ccc(F)cc3)cc2[nH]c1=O` (stereo not drawn) [Compound 115], 2.
Same read-out and setting: the figure for `CCc1cc2ccc(C(C)(C#N)CCOc3ccccc3Br)cc2[nH]c1=O` (stereo not drawn) [Compound 153] is 2; for `CCc1cc2ccc(C(C)(C#N)CCOc3cccc4c3OCCO4)cc2[nH]c1=O` (stereo not drawn) [Compound 163] it is 2; for `CCc1cc2ccc(C(C)(C#N)Cc3cccc(C(F)(F)F)c3)cc2[nH]c1=O` (stereo not drawn) [Compound 109] it is 2.
In turn, `CCc1cc2ccc([C@](C)(C#N)C[C@@H]3CCc4cc(C)ccc4O3)cc2[nH]c1=O` [Compound 251] gave a melting point of 192 °C.
On to `CCc1cc2ccc(C(C)(C#N)Cc3ccccc3F)cc2[nH]c1=O` (stereo not drawn) [Compound 106], for which the tubulin polymerisation score with tubulin is 1 (a compound showing 0 to 50% inhibition at 20 μM is reported as score 1).
For the compound `CCc1cc2ccc(C(C)(C#N)Cc3cccc(OC)c3)cc2[nH]c1=O` (stereo not drawn) [Compound 113], the tubulin polymerisation score with tubulin was 2.
As for `CCc1cc2ccc(C(C)(C#N)Cc3cccc(NC(=O)N4CCOCC4)c3)cc2[nH]c1=O` (stereo not drawn) [Compound 16], the melting point worked out at 121 °C.
Consider `CCc1cc2ccc(C(C)(C#N)CC3COc4ccccc4O3)cc2[nH]c1=O` (single isomer, unassigned) [Compound 48], for which the melting point was 241 °C.
With `CCc1cc2ccc([C@@](C)(C#N)C[C@@H]3CCc4cc(C)ccc4O3)cc2[nH]c1=O` [Compound 252], the melting point amounted to 184 °C.
For `CCc1cc2ccc(C(C)(C#N)CCOc3cccc(Cl)c3)cc2[nH]c1=O` (stereo not drawn) [Compound 151], the tubulin polymerisation score in the data set on tubulin is on record as 2.
Same read-out and setting: for `CCc1cc2ccc(C(C)(C#N)Cc3ccc(F)cc3F)cc2[nH]c1=O` (stereo not drawn) [Compound 137] the value was 1 (a compound showing 0 to 50% inhibition at 20 μM is reported as score 1).
`CCc1cc2ccc(C(C)(C#N)Cc3cccc(N)c3)cc2[nH]c1=O` (stereo not drawn) [Compound 15] displayed a melting point of 187 °C.
As to `CCc1cc2ccc(C(C)(C#N)Cc3c(F)cccc3F)cc2[nH]c1=O` (stereo not drawn) [Compound 138], the tubulin polymerisation score with tubulin is 1 (a compound showing 0 to 50% inhibition at 20 μM is reported as score 1).
In the data set on tubulin, `CCc1cc2ccc(C(C)(C#N)CCOc3ccccc3Cl)cc2[nH]c1=O` (stereo not drawn) [Compound 152] returned a tubulin polymerisation score of 2.
`CCc1cc2ccc(C(C)(C#N)Cc3cccc(C(=O)OC)c3)cc2[nH]c1=O` (stereo not drawn) [Compound 12] had a melting point of 140 °C.
In the case of `CCc1cc2ccc(C(C)(C#N)Cc3ccc(C)cc3)cc2[nH]c1=O` (stereo not drawn) [Compound 117], in the data set with tubulin, the tubulin polymerisation score stood at 2.
`CCc1cc2ccc(C(C)(C#N)Cc3cccc(C(=O)NC)c3)cc2[nH]c1=O` (stereo not drawn) [Compound 13]: the melting point was 182 °C.
In the case of `CCc1cc2ccc(C(C)(C#N)CCOc3ccc(C#N)cc3)cc2[nH]c1=O` (stereo not drawn) [Compound 161], the tubulin polymerisation score in the data set with tubulin stood at 2.
